{"source": "patent US20040228804A1", "about": "“Nasal administration of xylitol to a non-human mammal” (priority 2003, published 2004)", "key": {"pathogenic bacteria": {"tested_on": "pathogenic bacteria", "conditions": "several pathogenic bacteria exposed to xylitol; cited from earlier work"}, "shipping fever": {"tested_on": "shipping fever", "experiment": "treating cattle with xylitol in solution to reduce or prevent shipping fever", "assay_type": "in vivo", "conditions": "1% xylitol in solution; lower limit of tested effectiveness", "description": "(§1) Embodiments of the present invention are directed to treating cattle with xylitol in solution in order to reduce or prevent shipping fever, and/or ailments associated with close quartering of cattle. The solution may be a saline based solution for some embodiments, but the solution may also have just a water base. A maximum strength may be a saturated solution comprising approximately of 64 grams of xylitol per 100 cubic centimeters (cc's) of solution. The inventor has yet to determine a precise lower limit of xylitol that would be effective, but as little as 1% xylitol in solution has shown to be effective. It should be understood however, that a 1% xylitol in solution should not be construed as a lower limit of effectiveness; rather, this is only the lower limit of tested effectiveness. Smaller percentages of the xylitol in solution may likewise be effective, and thus their use would be within the scope and spirit of the invention.\nThe precise mode of application of the xylitol in solution may vary substantially. In at least some embodiments, nostrils of the cattle may be treated directly prior to close quartering, such as shipping. In particular, in these embodiments the xylitol in solution be applied to each nostril of each animal in the form of a mist (nebulized), which application preferably takes place for approximately two respiratory cycles of the animal for each nostril. […]"}, "[1]": {"experiment": "saturated solution of xylitol (maximum strength)", "assay_type": "physicochemical", "conditions": "saline or water based solution", "description": "as §1"}}}
{"smiles": "OC[C@@H](O)[C@H](O)[C@@H](O)CO", "note": "[xylitol]", "values": [{"measurement": "adherence of bacteria to their environment", "setting": "pathogenic bacteria", "value": "less adherent"}, {"measurement": "effectiveness of xylitol in solution", "setting": "shipping fever", "value": "effective"}, {"measurement": "saturated solution, xylitol per 100 cubic centimeters of solution", "setting": "[1]", "value": "~64 grams per 100 cubic centimeter"}]}
